The subject of the experiment is MaGSTe3. Nature of the experiment: GSH conjugation, absorbance at […] nm, Michaelis-Menten fit. The class given is biochemical, Monochamus alternatus. The note with it: co-substrate GSH (concentration not given); 100 mM PBS; CDNB varied, printed range 0–400 mM.

Consider `O=[N+]([O-])c1ccc(Cl)c([N+](=O)[O-])c1` [1-chloro-2,4-dinitrobenzene], for which the Km (in general, the concentration of substrate that gives half-maximal velocity) came to 1240 ± 210 µM.

Source of the values: publication PMC10743883, “Identification and Functional Analysis of an Epsilon Class Glutathione S-Transferase Gene Associated with α-Pinene Adaptation in Monochamus alternatus” (International Journal of Molecular Sciences, 2023).
